Source: paper PMC11277489, “Novel Piperazine Derivatives of Vindoline as Anticancer Agents” (International Journal of Molecular Sciences, 2024)

Assays:
SF-268 = experiment: NCI60 one-dose screen (10 μM), CNS Cancer; type: cell-based; conditions: Homo sapiens; 10 μM; SF-268, CNS Cancer; read-out: Growth percent rate
ACHN = experiment: NCI60 one-dose screen (10 μM), Renal Cancer; type: cell-based; conditions: Homo sapiens, 10 μM, Renal Cancer, read-out: Growth percent rate
LOX IMVI = experiment: NCI60 one-dose screen (10 μM), Melanoma; type: cell-based, human; conditions: Homo sapiens; 10 μM; LOX IMVI, Melanoma; read-out: Growth percent rate
SW-620 = experiment: NCI60 one-dose screen (10 μM), Colon Cancer; type: cell-based; conditions: Homo sapiens; 10 μM; SW-620, Colon Cancer; read-out: Growth percent rate
A549/ATCC = experiment: NCI60 one-dose screen (10 μM), Non-small Cell Lung Cancer; type: cell-based; conditions: Homo sapiens; 10 μM; A549/ATCC, Non-small Cell Lung Cancer; read-out: Growth percent rate
CCRF-CEM = experiment: NCI60 one-dose screen (10 μM), Leukemia; type: cell-based; conditions: Homo sapiens, 10 μM, Leukemia, read-out: Growth percent rate
RPMI-8226 = experiment: NCI60 one-dose screen (10 μM), Leukemia; type: cell-based; conditions: Homo sapiens; 10 μM; RPMI-8226, Leukemia; read-out: Growth percent rate
HCT-15 = experiment: NCI60 one-dose screen (10 μM), Colon Cancer; type: cell-based; conditions: Homo sapiens; 10 μM; HCT-15, Colon Cancer; read-out: Growth percent rate
SNB-19 = experiment: NCI60 one-dose screen (10 μM), CNS Cancer; type: cell-based; conditions: Homo sapiens; 10 μM; SNB-19, CNS Cancer; read-out: Growth percent rate
SF-295 = experiment: NCI60 one-dose screen (10 μM), CNS Cancer; type: cell-based; conditions: Homo sapiens; 10 μM; SF-295, CNS Cancer; read-out: Growth percent rate
MCF7 = experiment: NCI60 one-dose screen (10 μM), Breast Cancer; type: cell-based; conditions: Homo sapiens; 10 μM; MCF7, Breast Cancer; read-out: Growth percent rate
DU-145 = experiment: NCI60 one-dose screen (10 μM), Prostate Cancer; type: cell-based; conditions: Homo sapiens; 10 μM; DU-145, Prostate Cancer; read-out: Growth percent rate
SK-MEL-28 = experiment: NCI60 one-dose screen (10 μM), Melanoma; type: cell-based; conditions: Homo sapiens; 10 μM; SK-MEL-28, Melanoma; read-out: Growth percent rate
HT29 = experiment: NCI60 one-dose screen (10 μM), Colon Cancer; type: cell-based; conditions: Homo sapiens, HT-29; 10 μM; HT29, Colon Cancer; read-out: Growth percent rate
UACC-257 = experiment: NCI60 one-dose screen (10 μM), Melanoma; type: cell-based; conditions: Homo sapiens; 10 μM; UACC-257, Melanoma; read-out: Growth percent rate
[1] = test system: 60 human tumor cell lines (NCI60); experiment: NCI60 one-dose screen (10 μM), whole panel; type: cell-based; conditions: for activity at 10 µM: mean over 60 human cancer cell lines, read-out: Growth percent rate, Mean
TK-10 = experiment: NCI60 one-dose screen (10 μM), Renal Cancer; type: cell-based; conditions: Homo sapiens; 10 μM; TK-10, Renal Cancer; read-out: Growth percent rate
MALME-3M = experiment: NCI60 one-dose screen (10 μM), Melanoma; type: cell-based; conditions: Homo sapiens; 10 μM; MALME-3M, Melanoma; read-out: Growth percent rate
786–0 = experiment: NCI60 one-dose screen (10 μM), Renal Cancer; type: cell-based; conditions: Homo sapiens; 10 μM; 786-0, Renal Cancer; read-out: Growth percent rate
HL-60(TB) = experiment: NCI60 one-dose screen (10 μM), Leukemia; type: cell-based; conditions: Homo sapiens; 10 μM; HL-60(TB), Leukemia; read-out: Growth percent rate
MDA-MB-435 = experiment: NCI60 one-dose screen (10 μM), Melanoma; type: cell-based; conditions: Homo sapiens; 10 μM; MDA-MB-435, Melanoma; read-out: Growth percent rate
OVCAR-4 = experiment: NCI60 one-dose screen (10 μM), Ovarian Cancer; type: cell-based; conditions: Homo sapiens; 10 μM; OVCAR-4, Ovarian Cancer; read-out: Growth percent rate
SF-539 = experiment: NCI60 one-dose screen (10 μM), CNS Cancer; type: cell-based, human; conditions: for activity at 10 µM: Homo sapiens, SF-539, CNS Cancer, read-out: Growth percent rate
M14 = experiment: NCI60 one-dose screen (10 μM), Melanoma; type: cell-based; conditions: Homo sapiens; 10 μM; M14, Melanoma; read-out: Growth percent rate
CAKI-1 = experiment: NCI60 one-dose screen (10 μM), Renal Cancer; type: cell-based; conditions: Homo sapiens; 10 μM; CAKI-1, Renal Cancer; read-out: Growth percent rate
KM12 = experiment: NCI60 one-dose screen (10 μM), Colon Cancer; type: cell-based, human; conditions: Homo sapiens; 10 μM; KM12, Colon Cancer; read-out: Growth percent rate
NCI-H23 = experiment: NCI60 one-dose screen (10 μM), Non-small Cell Lung Cancer; type: cell-based; conditions: Homo sapiens; 10 μM; NCI-H23, Non-small Cell Lung Cancer; read-out: Growth percent rate
NCI-H322M = experiment: as above; type: cell-based; conditions: Homo sapiens, 10 μM, Non-small Cell Lung Cancer, read-out: Growth percent rate
SK-MEL-5 = experiment: NCI60 one-dose screen (10 μM), Melanoma; type: cell-based, human; conditions: for activity at 10 µM: Homo sapiens, SK-MEL-5, Melanoma, read-out: Growth percent rate
K-562 = experiment: NCI60 one-dose screen (10 μM), Leukemia; type: cell-based; conditions: Homo sapiens, K562; 10 μM; K-562, Leukemia; read-out: Growth percent rate
HOP-62 = experiment: NCI60 one-dose screen (10 μM), Non-small Cell Lung Cancer; type: cell-based; conditions: Homo sapiens; 10 μM; HOP-62, Non-small Cell Lung Cancer; read-out: Growth percent rate
RXF 393 = experiment: NCI60 one-dose screen (10 μM), Renal Cancer; type: cell-based, human; conditions: for activity at 10 µM: Homo sapiens, RXF 393, Renal Cancer, read-out: Growth percent rate
COLO 205 = experiment: NCI60 one-dose screen (10 μM), Colon Cancer; type: cell-based, human; conditions: for activity at 10 µM: Homo sapiens, COLO 205, Colon Cancer, read-out: Growth percent rate
U251 = experiment: NCI60 one-dose screen (10 μM), CNS Cancer; type: cell-based; conditions: Homo sapiens, U-251; 10 μM; U251, CNS Cancer; read-out: Growth percent rate
SK-MEL-2 = experiment: NCI60 one-dose screen (10 μM), Melanoma; type: cell-based; conditions: Homo sapiens; 10 μM; SK-MEL-2, Melanoma; read-out: Growth percent rate
IGROV1 = experiment: NCI60 one-dose screen (10 μM), Ovarian Cancer; type: cell-based; conditions: Homo sapiens, IGROV-1; 10 μM; IGROV1, Ovarian Cancer; read-out: Growth percent rate
A498 = experiment: NCI60 one-dose screen (10 μM), Renal Cancer; type: cell-based; conditions: Homo sapiens; 10 μM; A498, Renal Cancer; read-out: Growth percent rate
SNB-75 = experiment: NCI60 one-dose screen (10 μM), CNS Cancer; type: cell-based, human; conditions: Homo sapiens; 10 μM; SNB-75, CNS Cancer; read-out: Growth percent rate
OVCAR-8 = experiment: NCI60 one-dose screen (10 μM), Ovarian Cancer; type: cell-based; conditions: Homo sapiens; 10 μM; OVCAR-8, Ovarian Cancer; read-out: Growth percent rate
MOLT-4 = experiment: NCI60 one-dose screen (10 μM), Leukemia; type: cell-based, human; conditions: Homo sapiens; 10 μM; MOLT-4, Leukemia; read-out: Growth percent rate
NCI-H460 = experiment: NCI60 one-dose screen (10 μM), Non-small Cell Lung Cancer; type: cell-based; conditions: Homo sapiens; 10 μM; NCI-H460, Non-small Cell Lung Cancer; read-out: Growth percent rate

Structure (SMILES): CCC12C=CCN3CCC4(c5ccc(OC)cc5N(C)C4C(O)(C(=O)OC)C1OC(=O)CCC(=O)O)C32 (stereo not drawn) [Compound 15, 17-(O-3-carboxypropanoyl)vindoline]
- activity at 10 µM (SF-268): 87.2%
- activity at 10 µM (ACHN): 102%
- activity at 10 µM (LOX IMVI): 107%
- activity at 10 µM (SW-620): 102%
- activity at 10 µM (A549/ATCC): 94.3%
- activity at 10 µM (CCRF-CEM): 105%
- activity at 10 µM (RPMI-8226): 84.2%
- activity at 10 µM (HCT-15): 98.4%
- activity at 10 µM (SNB-19): 94.9%
- activity at 10 µM (SF-295): 113%
- activity at 10 µM (MCF7): 68.2%
- activity at 10 µM (DU-145): 98.1%
- activity at 10 µM (SK-MEL-28): 86.7%
- activity at 10 µM (HT29): 89.9%
- activity at 10 µM (UACC-257): 91.5%
- antiproliferative effect (in words) ([1]; 10 μM one-dose, NCI60): a notable antiproliferative effect was not shown
- activity at 10 µM [1]: 91.7%
- activity at 10 µM (TK-10): 90.8%
- activity at 10 µM (MALME-3M): 90.3%
- activity at 10 µM (786–0): 98.1%
- activity at 10 µM (HL-60(TB)): 114%
- activity at 10 µM (MDA-MB-435): 110%
- activity at 10 µM (OVCAR-4): 80.2%
- activity at 10 µM (SF-539): 92.9%
- activity at 10 µM (M14): 96.5%
- activity at 10 µM (CAKI-1): 95.5%
- activity at 10 µM (KM12): 82.8%
- activity at 10 µM (NCI-H23): 92.5%
- activity at 10 µM (NCI-H322M): 73.9%
- activity at 10 µM (SK-MEL-5): 96.8%
- activity at 10 µM (K-562): 90.5%
- activity at 10 µM (HOP-62): 102%
- activity at 10 µM (RXF 393): 96.6%
- activity at 10 µM (COLO 205): 93.6%
- activity at 10 µM (U251): 105%
- activity at 10 µM (SK-MEL-2): 100%
- activity at 10 µM (IGROV1): 90%
- activity at 10 µM (A498): 90.6%
- activity at 10 µM (SNB-75): 53.4%
- activity at 10 µM (OVCAR-8): 91.8%
- activity at 10 µM (MOLT-4): 106%
- activity at 10 µM (NCI-H460): 97.4%

Structure (SMILES): CC[C@]12C=CCN3CC[C@@]4(c5ccc(OC)cc5N(C)[C@H]4[C@@](O)(C(=O)OC)[C@@H]1OC(=O)CCCN1CCN(c4ccc(C(F)(F)F)cc4)CC1)[C@@H]32 [Compound 22]
- activity at 10 µM (SF-268): 0.04%
- activity at 10 µM (ACHN): -20.3%
- activity at 10 µM (LOX IMVI): -97.2%
- activity at 10 µM (SW-620): 7.47%
- activity at 10 µM (A549/ATCC): 4.54%
- activity at 10 µM (CCRF-CEM): 3.97%
- activity at 10 µM (RPMI-8226): -9.29%
- activity at 10 µM (HCT-15): -82.9%
- activity at 10 µM (SNB-19): -3.08%
- activity at 10 µM (SF-295): -84.8%
- activity at 10 µM (MCF7): -51.5%
- activity at 10 µM (DU-145): -38.8%
- activity at 10 µM (SK-MEL-28): -92.1%
- activity at 10 µM (HT29): -70.3%
- activity at 10 µM (UACC-257): -79.3%
- activity at 10 µM [1]: -44.5%
- activity at 10 µM (TK-10): -48.5%
- activity at 10 µM (MALME-3M): -90.3%
- activity at 10 µM (786–0): -72.7%
- activity at 10 µM (HL-60(TB)): 7.9%
- activity at 10 µM (MDA-MB-435): -78.9%
- activity at 10 µM (OVCAR-4): -18.9%
- growth percent rate (SF-539; 10 μM one-dose, SF-539 CNS cancer, negative = lethality): −96.98%
- activity at 10 µM (SF-539): -97%
- activity at 10 µM (M14): -75.5%
- activity at 10 µM (CAKI-1): -65%
- activity at 10 µM (KM12): -70%
- activity at 10 µM (NCI-H23): -61.1%
- activity at 10 µM (NCI-H322M): 50.5%
- growth percent rate (SK-MEL-5; 10 μM one-dose, SK-MEL-5 melanoma, negative = lethality): −98.54%
- activity at 10 µM (SK-MEL-5): -98.5%
- activity at 10 µM (K-562): 6.96%
- activity at 10 µM (HOP-62): 0.03%
- growth percent rate (RXF 393; 10 μM one-dose, RXF-393 renal cancer, negative = lethality): −91.93%
- activity at 10 µM (RXF 393): -91.9%
- growth percent rate (COLO 205; 10 μM one-dose, COLO-205 colon cancer, negative = lethality): −93.46%
- activity at 10 µM (COLO 205): -93.5%
- activity at 10 µM (U251): -88.4%
- activity at 10 µM (SK-MEL-2): -93.9%
- activity at 10 µM (IGROV1): -28.9%
- activity at 10 µM (A498): -15.1%
- activity at 10 µM (SNB-75): 2.76%
- activity at 10 µM (OVCAR-8): -47.4%
- activity at 10 µM (MOLT-4): 9.3%
- activity at 10 µM (NCI-H460): -36.9%
